We go through seven compounds from PMC8080530, “Glucocorticoid receptor Thr524 phosphorylation by MINK1 induces interactions with 14-3-3 protein regulators” (The Journal of Biological Chemistry, 2021).

The target of this assay is T1, 14-3-3ζ (Homo sapiens, UniProt P63104).
T1 construct: Full-length expression and purification of 14-3-3; made in house; host or cells: E. coli BL21 (DE3)STAR
T1 sequence (P63104 1-245): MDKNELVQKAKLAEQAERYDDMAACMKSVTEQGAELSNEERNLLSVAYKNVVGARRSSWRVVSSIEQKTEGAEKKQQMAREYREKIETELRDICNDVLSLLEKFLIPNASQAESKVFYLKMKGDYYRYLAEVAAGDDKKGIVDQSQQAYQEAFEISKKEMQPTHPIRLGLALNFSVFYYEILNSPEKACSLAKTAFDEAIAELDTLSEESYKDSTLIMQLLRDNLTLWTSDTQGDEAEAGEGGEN
In words: FP assay with GR phosphorylated peptides and 14-3-3ζ. The assay is classed as binding. The method, then: After 30-min incubation at RT, the plates were read on a plate reader PHERAstar (BMG LABTECH GmbH) for FP signal using […] and standard excitation (485 nm) and emission (520 nm). Measurements were performed as triplicates. Binding data were fit to a standard Hill equation using the software Genedata Screener. The figures were made using the software GraphPad Prism 8. FP data were expressed as millipolarization (mP) units, and the dynamic range (ΔmP) was the difference of the signals from the bound peptide and free peptide. Errors are the standard error of the fit.

Setting [1] is: read-out: PKd with 14-3-3ζ (converted).

Each structure is given as a SMILES string. Read-outs that look alike come from different tables or passages of the source. Non-standard residues stand in square brackets, D forms with d. Residues, ends and D or L forms follow the SMILES beside them. pT = C[C@@H](OP(=O)(O)O)[C@H](N)C(=O)O; pS = N[C@@H](COP(=O)(O)O)C(=O)O

For `CC[C@H](C)[C@H](NC(=O)[C@@H](NC(=O)[C@@H](N)CCCCN)[C@@H](C)O)C(=O)N[C@H](C(=O)N1CCC[C@H]1C(=O)N[C@@H](C)C(=O)N[C@H](C(=O)N[C@@H](CC(C)C)C(=O)N1CCC[C@H]1C(=O)N[C@@H](CCC(N)=O)C(=O)N[C@@H](CC(C)C)C(=O)N[C@H](C(=O)N1CCC[C@H]1C(=O)NCC(=O)NCC(=O)NCC(=O)NCC(=O)NCC(=O)N[C@@H](CCCNC(=N)N)C(=O)N[C@@H](CO)C(=O)N[C@@H](Cc1ccc(O)cc1)C(=O)N[C@@H](CCCNC(=N)N)C(=O)N[C@@H](CCC(N)=O)C(=O)N[C@@H](CO)C(=O)N[C@@H](COP(=O)(O)O)C(=O)N[C@@H](C)C(=O)N[C@@H](CC(N)=O)C(=O)N[C@@H](CC(C)C)C(=O)N[C@@H](CC(C)C)C(=O)N[C@@H](C)C(=O)N[C@@H](Cc1ccccc1)C(=O)O)[C@@H](C)O)[C@@H](C)OP(=O)(O)O)C(C)C` [GR_C622A] (H-KTIVPA[pT]LPQLTPGGGGGRSYRQS[pS]ANLLAF-OH), the Kd under setting [1] is 63.1 nM.
In the case of `CC[C@H](C)[C@H](NC(=O)[C@@H](NC(=O)[C@@H](N)CCCCN)[C@@H](C)O)C(=O)N[C@H](C(=O)N1CCC[C@H]1C(=O)N[C@@H](C)C(=O)N[C@H](C(=O)N[C@@H](CC(C)C)C(=O)N1CCC[C@H]1C(=O)N[C@@H](CCC(N)=O)C(=O)N[C@@H](CC(C)C)C(=O)N[C@H](C(=O)N1CCC[C@H]1C(=O)NCC(=O)NCC(=O)NCC(=O)NCC(=O)NCC(=O)N[C@@H](CCCNC(=N)N)C(=O)N[C@@H](CO)C(=O)N[C@@H](Cc1ccc(O)cc1)C(=O)N[C@@H](CCCNC(=N)N)C(=O)N[C@@H](CCC(N)=O)C(=O)N[C@@H](CO)C(=O)N[C@@H](COP(=O)(O)O)C(=O)N[C@@H](C)C(=O)N[C@@H](CC(N)=O)C(=O)N[C@@H](CC(C)C)C(=O)N[C@@H](CC(C)C)C(=O)N[C@@H](CS)C(=O)N[C@@H](C)C(=O)O)[C@@H](C)O)[C@@H](C)OP(=O)(O)O)C(C)C` [GR_F623A] (H-KTIVPA[pT]LPQLTPGGGGGRSYRQS[pS]ANLLCA-OH), under setting [1], the Kd was 50.1 nM.
On the same count and under the same terms, then `CC(C)C[C@H](NC(=O)[C@H](CC(N)=O)NC(=O)[C@H](C)NC(=O)[C@H](COP(=O)(O)O)NC(=O)[C@H](CO)NC(=O)[C@H](CCC(N)=O)NC(=O)[C@H](CCCNC(=N)N)NC(=O)[C@H](Cc1ccc(O)cc1)NC(=O)[C@H](CO)NC(=O)[C@H](CCCNC(=N)N)NC(=O)CNC(=O)CNC(=O)CNC(=O)CNC(=O)CNC(=O)[C@@H]1CCCN1C(=O)[C@@H](NC(=O)[C@H](CC(C)C)NC(=O)[C@H](CCC(N)=O)NC(=O)[C@@H]1CCCN1C(=O)[C@H](CC(C)C)NC(=O)[C@@H](NC(=O)[C@H](C)NC(=O)[C@@H]1CCCN1C(=O)[C@@H](NC(=O)[C@H](C)NC(=O)[C@@H](NC(=O)[C@@H](N)CCCCN)[C@@H](C)O)C(C)C)[C@@H](C)OP(=O)(O)O)[C@@H](C)O)C(=O)N[C@@H](CC(C)C)C(=O)N[C@@H](CS)C(=O)N[C@@H](Cc1ccccc1)C(=O)O` [GR_I520A] (H-KTAVPA[pT]LPQLTPGGGGGRSYRQS[pS]ANLLCF-OH), with 50.1 nM.
For `CC[C@H](C)[C@H](NC(=O)[C@@H](NC(=O)[C@H](C)N)[C@@H](C)O)C(=O)N[C@H](C(=O)N1CCC[C@H]1C(=O)N[C@@H](C)C(=O)N[C@H](C(=O)N[C@@H](CC(C)C)C(=O)N1CCC[C@H]1C(=O)N[C@@H](CCC(N)=O)C(=O)N[C@@H](CC(C)C)C(=O)N[C@H](C(=O)N1CCC[C@H]1C(=O)NCC(=O)NCC(=O)NCC(=O)NCC(=O)NCC(=O)N[C@@H](CCCNC(=N)N)C(=O)N[C@@H](CO)C(=O)N[C@@H](Cc1ccc(O)cc1)C(=O)N[C@@H](CCCNC(=N)N)C(=O)N[C@@H](CCC(N)=O)C(=O)N[C@@H](CO)C(=O)N[C@@H](COP(=O)(O)O)C(=O)N[C@@H](C)C(=O)N[C@@H](CC(N)=O)C(=O)N[C@@H](CC(C)C)C(=O)N[C@@H](CC(C)C)C(=O)N[C@@H](CS)C(=O)N[C@@H](Cc1ccccc1)C(=O)O)[C@@H](C)O)[C@@H](C)OP(=O)(O)O)C(C)C` [GR_K518A] (H-ATIVPA[pT]LPQLTPGGGGGRSYRQS[pS]ANLLCF-OH), the Kd (FP, doubly phosphorylated 31-mer peptides, triplicates, read-out: Kd with 14-3-3ζ (values in nM)) is 110 nM.
`CC[C@H](C)[C@H](NC(=O)[C@@H](NC(=O)[C@@H](N)CCCCN)[C@@H](C)O)C(=O)N[C@H](C(=O)N1CCC[C@H]1C(=O)N[C@@H](C)C(=O)N[C@H](C(=O)N[C@@H](C)C(=O)N1CCC[C@H]1C(=O)N[C@@H](CCC(N)=O)C(=O)N[C@@H](CC(C)C)C(=O)N[C@H](C(=O)N1CCC[C@H]1C(=O)NCC(=O)NCC(=O)NCC(=O)NCC(=O)NCC(=O)N[C@@H](CCCNC(=N)N)C(=O)N[C@@H](CO)C(=O)N[C@@H](Cc1ccc(O)cc1)C(=O)N[C@@H](CCCNC(=N)N)C(=O)N[C@@H](CCC(N)=O)C(=O)N[C@@H](CO)C(=O)N[C@@H](COP(=O)(O)O)C(=O)N[C@@H](C)C(=O)N[C@@H](CC(N)=O)C(=O)N[C@@H](CC(C)C)C(=O)N[C@@H](CC(C)C)C(=O)N[C@@H](CS)C(=O)N[C@@H](Cc1ccccc1)C(=O)O)[C@@H](C)O)[C@@H](C)OP(=O)(O)O)C(C)C` [GR_L525A] (H-KTIVPA[pT]APQLTPGGGGGRSYRQS[pS]ANLLCF-OH): the Kd under setting [1] is 63.1 nM.
As for `CC[C@H](C)[C@H](NC(=O)[C@@H](NC(=O)[C@@H](N)CCCCN)[C@@H](C)O)C(=O)N[C@H](C(=O)N1CCC[C@H]1C(=O)N[C@@H](C)C(=O)N[C@H](C(=O)N[C@@H](CC(C)C)C(=O)N1CCC[C@H]1C(=O)N[C@@H](CCC(N)=O)C(=O)N[C@@H](C)C(=O)N[C@H](C(=O)N1CCC[C@H]1C(=O)NCC(=O)NCC(=O)NCC(=O)NCC(=O)NCC(=O)N[C@@H](CCCNC(=N)N)C(=O)N[C@@H](CO)C(=O)N[C@@H](Cc1ccc(O)cc1)C(=O)N[C@@H](CCCNC(=N)N)C(=O)N[C@@H](CCC(N)=O)C(=O)N[C@@H](CO)C(=O)N[C@@H](COP(=O)(O)O)C(=O)N[C@@H](C)C(=O)N[C@@H](CC(N)=O)C(=O)N[C@@H](CC(C)C)C(=O)N[C@@H](CC(C)C)C(=O)N[C@@H](CS)C(=O)N[C@@H](Cc1ccccc1)C(=O)O)[C@@H](C)O)[C@@H](C)OP(=O)(O)O)C(C)C` [GR_L528A] (H-KTIVPA[pT]LPQATPGGGGGRSYRQS[pS]ANLLCF-OH), the Kd under setting [1] was 50.1 nM.
In the case of `CC[C@H](C)[C@H](NC(=O)[C@@H](NC(=O)[C@@H](N)CCCCN)[C@@H](C)O)C(=O)N[C@H](C(=O)N1CCC[C@H]1C(=O)N[C@@H](C)C(=O)N[C@H](C(=O)N[C@@H](CC(C)C)C(=O)N1CCC[C@H]1C(=O)N[C@@H](CCC(N)=O)C(=O)N[C@@H](CC(C)C)C(=O)N[C@H](C(=O)N1CCC[C@H]1C(=O)NCC(=O)NCC(=O)NCC(=O)NCC(=O)NCC(=O)N[C@@H](CCCNC(=N)N)C(=O)N[C@@H](CO)C(=O)N[C@@H](Cc1ccc(O)cc1)C(=O)N[C@@H](CCCNC(=N)N)C(=O)N[C@@H](CCC(N)=O)C(=O)N[C@@H](CO)C(=O)N[C@@H](COP(=O)(O)O)C(=O)N[C@@H](C)C(=O)N[C@@H](CC(N)=O)C(=O)N[C@@H](C)C(=O)N[C@@H](CC(C)C)C(=O)N[C@@H](CS)C(=O)N[C@@H](Cc1ccccc1)C(=O)O)[C@@H](C)O)[C@@H](C)OP(=O)(O)O)C(C)C` [GR_L620A] (H-KTIVPA[pT]LPQLTPGGGGGRSYRQS[pS]ANALCF-OH), under setting [1], the Kd was 50.1 nM.
